Experimental data reported in US11326165B1, “Methods and compositions for modulating splicing” (SKYHAWK THERAPEUTICS, INC., priority 2017, dated 2022).

Assays:
IKBKAP = IKBKAP splicing assay (IKBKAP^FL and IKBKAP^Δ20 mRNA, qPCR); assay type: cell-based; conditions: 24 hours
Procedure: Various cells lines were treated with the SMSMs described herein. RNA was then isolated, cDNA synthesized, qPCR performed and the levels of IKBKAP targets of the SMSMs were detemined.
On the day of the experiment, a 96-well plate was seeded with the cell lines of interest. The cells were diluted with full growth media to a concentration of 2.0×10^5 cells/mL and 100 μL of cells were added to each well (20,000 cells per well). The cells were treated with a compound immediately after plating.
The compounds were then added to the cell plate using the HP compound dispenser. In the initial experiment, atop concentration of 10 μM and an 8 point 4-fold dilution scheme was used. […]
The qPCR was performed using a QuantStudio 6 instrument (ThermoFisher) and the following cycling conditions and according to the tables below. All samples and standards were analyzed in triplicate. […]
The determined IKBKAP^FL and IKBKAP^Δ20 isoform quantities were then used to determine the IKBKAP^FL: IKBKAP^Δ20 ratio at increasing SMSM compound concentrations. The PPIA quantities were used in the normalization to account of cell proliferation effects of the compounds.
An assay to measure the IKBKAP^FL mRNA and IKBKAP^Δ20 mRNA simultaneously in cell wells was performed. The RNA values were measured relative to DMSO control and also included a housekeeping gene, PPIA to ensure data was consistent. […]

A-673 cells = assay: A-673 cell viability; assay type: cell-based; conditions: Homo sapiens, A673
Procedure: FIG. 9A depicts a graph of viable A-673 cells when incubated with the indicated concentrations of an SMSM.

FoxM1 A mRNA = assay: FoxM1 splicing in cells: FoxM1 A mRNA increase (exon excluded); assay type: cell-based; conditions: read-out: Splice EC50 (nM) FoxM1 A mRNA increase (exon excluded)
Procedure: (§1) FIG. 7 depicts a graph of relative transcript levels of FOXM1 isoform A (represses cancer) and FOXM1 isoform B (promotes cancer) in A-673 cells incubated with the indicated concentrations of an SMSM.

FoxM1 BC mRNA = assay: FoxM1 splicing in cells: FoxM1 BC mRNA decrease (exon included); assay type: cell-based; conditions: read-out: Splice IC50 (nM) FoxM1 BC mRNA decrease (exon included)
Procedure: as §1

A673 xenografts = A673 xenografts in nude mice, tumor growth inhibition; assay type: in vivo; conditions: A673 xenograft (FIGS. 14A-C)
Procedure: Dose range and time course studies comparing anti-neoplastic effects of SMSM−167 and SMSM−151 against vehicle were conducted.
Female NCrNu mice were used. Age range of enrolment was 7-10 weeks. A total of 75 animals were for the studies.
The A673 tumor cell line was maintained in vitro as a monolayer culture. […] The cells growing in an exponential growth phase were harvested and counted for tumor inoculation.
Each mouse were inoculated into a right flank with the single cell suspension of 95% viable tumor cells (5×10^6 cells/mouse) in serum-free RPMI 1640 Media for tumor development. Treatments were administered when mean tumor size reached approximately 75 mm^3.
Before commencement of treatment, all animals were weighed and assigned to treatment groups using a randomization procedure. Mice were randomized into groups based upon their tumor sizes to ensure that each group had approximately the same mean tumor size and range of tumor size.
After inoculation, the animals were checked daily for morbidity and mortality. At the time of routine monitoring, the animals were checked for any effects of tumor growth on normal behavior such as mobility, food and water consumption, body weight gain/loss, eye/hair matting and any other abnormal effects. Deaths and observed clinical signs were recorded.
Body weight were measured prior to tumor inoculation and prior to the treatment administration and then daily. Tumor size were measured 2-3 times per week in two dimensions using a caliper, and the volume were expressed in mm^3 using the formula: V=0.5×a×b^2 where a and b are the long and short diameters of the tumor, respectively.
(§2) Studies were terminated when the tumor size in the vehicle treated group reached 2,000 mm^3. Each mouse was bled at 2 hrs after the last dose and at least 50 μl of plasma were collected from each mouse. All of the collected plasma samples and retainer dosing solutions for each dose level were used for bioanalytical measurements. All tumors were also collected and weighed. One necrosis-free tumor fragment of approximately 50 mg was taken from each tumor and flash-frozen for RNA isolation. The remaining tumor was flash frozen for PK analysis.
Studies were performed to assess the effects of in vivo SMSM treatment on glioblastoma, breast, pancreatic, prostate, melanoma, lymphoma and Ewing sarcoma tumors. Studies were also performed to assess the effects of in vivo SMSM treatment on mRNA levels. Immunocompromised nude mice with pre-existing glioblastoma, breast, pancreatic, prostate, melanoma, lymphoma and Ewing sarcoma xenografts were treated with vehicle or SMSMs. Tumor tissues from subcutaneous xenografts were broken into a powder using a BioPulverizer (Biospec Products, Inc.). After SMSM treatment, mRNA was isolated from the xenografts and was analyzed by qRT-PCR.
as §2, with “Tumor size was measured 2 times per week in two dimensions using a caliper. Studies” for “Studies”, “plasma was” for “plasma were”
The effects of in vivo SMSM treatments on pre-existing subcutaneous glioblastoma, breast, pancreatic, prostate, melanoma, lymphoma and Ewing sarcoma xenografts were assessed. For these in vivo experiments, 1×10^6Raji, A375, A673, MDA-MB-231, BxPC-3, PC-3 or U87 (cells re-suspended in 100 μl PBS were subcutaneously injected into the flanks of nude mice. When the tumor reached approximately 100 mm^3 (volume=(¾)(π)(length/2)(width/2)^2), the treatments indicated in the tables below were initiated. […]

A673 cells = assay: Cell viability and proliferation, A673 cells (crystal violet); assay type: cell-based; conditions: cell proliferation IC50 in NHDF cells over A673 cells, 72 h
Procedure: Small molecule splicing modulators were tested in a dose-response assay using A673 cells and NHDF cells.
A673 cells or NHDF cells were first plated in 96-well plastic tissue culture plates (10,000 cells per well). The cells were treated with vehicle alone (DMSO), or increasing concentrations of SMSM compounds for 72 h. Following treatment, cell proliferation was determined using a crystal violet assay. The relative cell proliferation at each concentration was determined.

[1] = Maximum tolerable dose study (survival, body weight); assay type: in vivo; conditions: mice
Procedure: Survival of mice after administration of SMSMs after 10 or 11 days was assessed.
Tolerance of the drug treatments was determined by measuring the weight of the mice during the period of drug administration. Body weight was measured prior to tumor inoculation and prior to the treatment administration and then daily. The changes in the final weight of the mice for the SMSM treatments were determined.

Oc1cc(-c2cn[nH]c2)c(F)cc1-c1ccc(O[C@@H]2C[C@H]3CCC[C@@H](C2)N3)nn1 [compound 278, 2-(6-(((1R,3s,5S)-9-azabicyclo[3.3.1]nonan-3-yl)oxy)pyridazin-3-yl)-4-fluoro-5-(1H-pyrazol-4-yl)phenol]
EC50 (IKBKAP; IKBKAP^FL mRNA increase): 101 to 350 nM
IC50 (IKBKAP; IKBKAP^Δ20 mRNA decrease): < 200 nM

Oc1cc(-c2cn[nH]c2)ccc1-c1ccc(O[C@H]2C[C@H]3CCC[C@@H](C2)N3)nn1 [compound 277, 2-(6-(((1R,3r,5S)-9-azabicyclo[3.3.1]nonan-3-yl)oxy)pyridazin-3-yl)-5-(1H-pyrazol-4-yl)phenol]
IC50 (A-673 cells): > 1000 nM
EC50 (FoxM1 A mRNA): > 1000 nM
IC50 (FoxM1 BC mRNA): > 1000 nM

Oc1cc(-c2cn[nH]c2)ccc1-c1ccc(O[C@@H]2C[C@H]3CCC[C@@H](C2)N3)nn1 [compound 276, 2-(6-(((1R,3s,5S)-9-azabicyclo[3.3.1]nonan-3-yl)oxy)pyridazin-3-yl)-5-(1H-pyrazol-4-yl)phenol]
IC50 (A-673 cells): 101 to 250 nM

Oc1cc(C2C=NN=N2)ccc1-c1ccc(O[C@@H]2C[C@H]3CC[C@@H](C2)N3)nn1 (stereo partly drawn) [compound 253, 2-(6-(((1R,3s,5S)-8-azabicyclo[3.2.1]octan-3-yl)oxy)pyridazin-3-yl)-5-(1H-1,2,3-triazol-4-yl)phenol]
IC50 (A-673 cells): 501 to 1000 nM
EC50 (FoxM1 A mRNA): 251 to 500 nM
IC50 (FoxM1 BC mRNA): 251 to 500 nM

CN(c1ccc(-c2cc(F)c(-c3cn[nH]c3)cc2O)nn1)[C@H]1C[C@]2(C)CC[C@](C)(C1)N2 [compound 167, 2-(6-(((1R,3s,5S)-1,5-dimethyl-8-azabicyclo[3.2.1]octan-3-yl)(methyl)amino)pyridazin-3-yl)-4-fluoro-5-(1H-pyrazol-4-yl)phenol]
TGI(%) (A673 xenografts; 5 mg/kg BID PO, Day 7): 65.56%
TGI(%) (A673 xenografts; 5 mg/kg BID PO, Day 11): 56.92%
TGI(%) (A673 xenografts; 5 mg/kg BID PO, Day 14): 55.14%
TGI(%) (A673 xenografts; 5 mg/kg BID PO, Day 18): 59.68%
TGI(%) (A673 xenografts; 7.5 mg/kg BID PO, Day 7): 59.45%
TGI(%) (A673 xenografts; 7.5 mg/kg BID PO, Day 11): 64.75%
TGI(%) (A673 xenografts; 7.5 mg/kg BID PO, Day 14): 64.43%
TGI(%) (A673 xenografts; 7.5 mg/kg BID PO, Day 18): 72.80%
TGI(%) (A673 xenografts; 10 mg/kg QD PO, Day 7): −32.72%
TGI(%) (A673 xenografts; 10 mg/kg QD PO, Day 11): 3.85%
TGI(%) (A673 xenografts; 10 mg/kg QD PO, Day 14): −2.13%
TGI(%) (A673 xenografts; 10 mg/kg QD PO, Day 18): 41.77%
Ratio NHDF/A673 IC50 (A673 cells): >2,500
Outcome ([1]; IP, 0.1 mg/kg, BIDx12): All survived
Outcome ([1]; IP, 0.3 mg/kg, BIDx12): All survived
Outcome ([1]; IP, 1 mg/kg, QDx12): All survived
Outcome ([1]; PO, 5 mg/kg, QDx12): All survived
